# Measured values as given in patent US20200017496A1 (priority 2017, published 2020).
# Read-outs that look alike come from different tables or passages of the source.
# Test system: Klebsiella pneumoniae (KPN) isolates
# Assay: MIC of compounds alone and combined with antibacterials, broth microdilution (CLSI)
# Assay type: cell-based
# Conditions: for MIC: Klebsiella pneumoniae, read-out: MIC
# Outline: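 Inoculum 5·10^5 CFU/mL (final), log phase, ca-MHB; 16-20 h, 35° C, ambient air. MIC = lowest conc. with no visible growth; ATB MIC read at each compound level.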
smiles,measurement,setting,value
"C=CC1=C(C(=O)O)N2C(=O)[C@@H](NC(=O)/C(=N\OCC(=O)O)c3csc(N)n3)[C@H]2SC1 [FIX, Cefixime]",MIC ATB in combination,"KPN UFR66, AF1 @ 8 μg/mL",0.25 µg/mL
same,MIC ATB in combination,"KPN UFR67, AF1 @ 4 μg/mL",2 µg/mL
same,MIC ATB in combination,"KPN UFR67, AF1 @ 8 μg/mL",0.5 µg/mL
same,MIC ATB in combination,"KPN UFR68, AF1 @ 4 μg/mL",1 µg/mL
same,MIC ATB in combination,"KPN UFR68, AF1 @ 8 μg/mL",0.25 µg/mL
same,MIC ATB in combination,"KPN UFR77, AF1 @ 4 μg/mL",16 µg/mL
same,MIC ATB in combination,"KPN UFR77, AF1 @ 8 μg/mL",8 µg/mL
same,MIC ATB in combination,"KPN UFR78, AF1 @ 4 μg/mL",128 µg/mL
same,MIC ATB in combination,"KPN UFR78, AF1 @ 8 μg/mL",32 µg/mL
same,MIC ATB in combination,"KPN UFR79, AF1 @ 4 μg/mL",16 µg/mL
same,MIC ATB in combination,"KPN UFR79, AF1 @ 8 μg/mL",4 µg/mL
same,MIC ATB in combination,"KPN UFR80, AF1 @ 4 μg/mL",<=0.25 μg/mL
same,MIC ATB in combination,"KPN UFR80, AF1 @ 8 μg/mL",<=0.25 μg/mL
same,MIC ATB in combination,"KPN UFR81, AF1 @ 4 μg/mL",16 µg/mL
same,MIC ATB in combination,"KPN UFR81, AF1 @ 8 μg/mL",2 µg/mL
same,MIC ATB in combination,"KPN UFR215, AF1 @ 4 μg/mL",<=0.25 μg/mL
same,MIC ATB in combination,"KPN UFR215, AF1 @ 8 μg/mL",<=0.25 μg/mL
same,MIC ATB in combination,"KPN UFR216, AF1 @ 4 μg/mL",<=0.25 μg/mL
same,MIC ATB in combination,"KPN UFR216, AF1 @ 8 μg/mL",<=0.25 μg/mL
same,MIC ATB in combination,"KPN UFR217, AF1 @ 4 μg/mL",<=0.25 μg/mL
same,MIC ATB in combination,"KPN UFR217, AF1 @ 8 μg/mL",<=0.25 μg/mL
same,MIC ATB in combination,"KPN UFR219, AF1 @ 4 μg/mL",<=0.25 μg/mL
same,MIC ATB in combination,"KPN UFR219, AF1 @ 8 μg/mL",<=0.25 μg/mL
same,MIC ATB in combination,"KPN UFR220, AF1 @ 4 μg/mL",4 µg/mL
same,MIC ATB in combination,"KPN UFR220, AF1 @ 8 μg/mL",2 µg/mL
same,MIC ATB in combination,"KPN UFR221, AF1 @ 4 μg/mL",2 µg/mL
same,MIC ATB in combination,"KPN UFR221, AF1 @ 8 μg/mL",<=0.25 μg/mL
same,MIC ATB in combination,"KPN UFR222, AF1 @ 4 μg/mL",32 µg/mL
same,MIC ATB in combination,"KPN UFR222, AF1 @ 8 μg/mL",16 µg/mL
same,MIC ATB in combination,"KPN UFR227O, AF1 @ 4 μg/mL",1 µg/mL
same,MIC ATB in combination,"KPN UFR227O, AF1 @ 8 μg/mL",0.5 µg/mL
same,MIC,"BAA1898, strain KPN BAA-1898 (TEM-1, SHV-11, SHV-12, KPC-2), ATB alone",> 128 µg/mL
same,MIC,"BAA1898, strain KPN BAA-1898 (TEM-1, SHV-11, SHV-12, KPC-2), CLA @ 4 μg/ml+ ATB",64 µg/mL
same,MIC,"KPN 110376, alone",> 128 µg/mL
same,MIC,"KPN 131119, alone",> 128 µg/mL
same,MIC,"KPN 190270, alone",> 128 µg/mL
same,MIC,"KPN UFR25, alone",> 128 µg/mL
same,MIC,"KPN UFR66, alone",512 µg/mL
same,MIC,"KPN UFR68, alone",> 128 µg/mL
same,MIC,"strain KPN 6299 (TEM-1, SHV-11, OXA-163), ATB alone",8 µg/mL
same,MIC,"strain KPN 6299 (TEM-1, SHV-11, OXA-163), CLA @ 4 μg/ml+ ATB",8 µg/mL
same,MIC,"strain KPN 110376 (TEM-1, SHV-1, CTX-M-15, OXA-1, OXA-48), ATB alone",> 128 µg/mL
same,MIC,"strain KPN 110376 (TEM-1, SHV-1, CTX-M-15, OXA-1, OXA-48), CLA @ 4 μg/ml+ ATB",128 µg/mL
same,MIC,"strain KPN 131119 (TEM-1, SHV-11, CTX-M-15, OXA-1, OXA-48), ATB alone",> 128 µg/mL
same,MIC,"strain KPN 131119 (TEM-1, SHV-11, CTX-M-15, OXA-1, OXA-48), CLA @ 4 μg/ml+ ATB",> 128 µg/mL
same,MIC,"strain KPN 140513 (TEM-1, SHV-11, CTX-M-15, KPC-3), ATB alone",> 128 µg/mL
same,MIC,"strain KPN 140513 (TEM-1, SHV-11, CTX-M-15, KPC-3), CLA @ 4 μg/ml+ ATB",> 128 µg/mL
same,MIC,"strain KPN 160143 (TEM-1, SHV-1, CTX-M-15, KPC-2, OXA-1), ATB alone",> 128 µg/mL
same,MIC,"strain KPN 160143 (TEM-1, SHV-1, CTX-M-15, KPC-2, OXA-1), CLA @ 4 μg/ml+ ATB",2 µg/mL
same,MIC,"strain KPN 190128 (TEM-1, SHV-32, CTX-M-15, OXA-1), ATB alone",> 128 µg/mL
same,MIC,"strain KPN 190128 (TEM-1, SHV-32, CTX-M-15, OXA-1), CLA @ 4 μg/ml+ ATB",0.5 µg/mL
same,MIC,"strain KPN 190270 (TEM-1, SHV-76, CTX-M-15, OXA-1), ATB alone",> 128 µg/mL
same,MIC,"strain KPN 190270 (TEM-1, SHV-76, CTX-M-15, OXA-1), CLA @ 4 μg/ml+ ATB",1 µg/mL
same,MIC,"strain KPN 190425 (TEM-1, SHV-1, CTX-M-15, OXA-1), ATB alone",> 128 µg/mL
same,MIC,"strain KPN 190425 (TEM-1, SHV-1, CTX-M-15, OXA-1), CLA @ 4 μg/ml+ ATB",≤ 0.25 µg/mL
same,MIC,"strain KPN 190551 (TEM-1, SHV-1, CTX-M-15, OXA-1), ATB alone",> 128 µg/mL
same,MIC,"strain KPN 190551 (TEM-1, SHV-1, CTX-M-15, OXA-1), CLA @ 4 μg/ml+ ATB",≤ 0.25 µg/mL
same,MIC,"strain KPN 200047 (TEM-1, SHV-32, CTX-M-15, OXA-1), ATB alone",> 128 µg/mL
same,MIC,"strain KPN 200047 (TEM-1, SHV-32, CTX-M-15, OXA-1), CLA @ 4 μg/ml+ ATB",≤ 0.25 µg/mL
same,MIC,"strain KPN 200327 (TEM-1, SHV-1, CTX-M-15, OXA-1), ATB alone",64 µg/mL
same,MIC,"strain KPN 200327 (TEM-1, SHV-1, CTX-M-15, OXA-1), CLA @ 4 μg/ml+ ATB",≤ 0.25 µg/mL
same,MIC,"strain KPN 260251 (TEM-1, SHV-11, SHV-12, CTX-M-15, KPC-2), ATB alone",> 128 µg/mL
same,MIC,"strain KPN 260251 (TEM-1, SHV-11, SHV-12, CTX-M-15, KPC-2), CLA @ 4 μg/ml+ ATB",32 µg/mL
same,MIC,"strain KPN 260252 (TEM-1, SHV-11, KPC-3), ATB alone",> 128 µg/mL
same,MIC,"strain KPN 260252 (TEM-1, SHV-11, KPC-3), CLA @ 4 μg/ml+ ATB",128 µg/mL
same,MIC,"strain KPN 260376 (SHV-1, SHV-49, OXA-1), ATB alone",> 128 µg/mL
same,MIC,"strain KPN 260376 (SHV-1, SHV-49, OXA-1), CLA @ 4 μg/ml+ ATB",≤ 0.25 µg/mL
same,MIC,"strain KPN 270077 (TEM-1, SHV-1, CTX-M-15), ATB alone",> 128 µg/mL
same,MIC,"strain KPN 270077 (TEM-1, SHV-1, CTX-M-15), CLA @ 4 μg/ml+ ATB",0.5 µg/mL
same,MIC,"strain KPN 700603 (SHV-18, OXA-2), ATB alone",16 µg/mL
same,MIC,"strain KPN 700603 (SHV-18, OXA-2), CLA @ 4 μg/ml+ ATB",0.5 µg/mL
same,MIC,"strain KPN ARA (TEM-1, SHV-11, CTX-M-15, OXA-1, OXA-48), ATB alone",> 128 µg/mL
same,MIC,"strain KPN ARA (TEM-1, SHV-11, CTX-M-15, OXA-1, OXA-48), CLA @ 4 μg/ml+ ATB",128 µg/mL
same,MIC,"strain KPN LIB (SHV-11, OXA-48), ATB alone",≤ 0.25 µg/mL
same,MIC,"strain KPN LIB (SHV-11, OXA-48), CLA @ 4 μg/ml+ ATB",≤ 0.25 µg/mL
same,MIC,"strain KPN UFR22_O (TEM-1, SHV-1, OXA-48), ATB alone",≤ 0.25 µg/mL
same,MIC,"strain KPN UFR22_O (TEM-1, SHV-1, OXA-48), CLA @ 4 μg/ml+ ATB",≤ 0.25 µg/mL
same,MIC,"strain KPN UFR23 (TEM-1, SHV-1, OXA-48), ATB alone",≤ 0.25 µg/mL
same,MIC,"strain KPN UFR23 (TEM-1, SHV-1, OXA-48), CLA @ 4 μg/ml+ ATB",≤ 0.25 µg/mL
same,MIC,"strain KPN UFR24 (TEM-1, SHV-2, SHV-11, OXA-1, OXA-48, OXA-47), ATB alone",> 128 µg/mL
same,MIC,"strain KPN UFR24 (TEM-1, SHV-2, SHV-11, OXA-1, OXA-48, OXA-47), CLA @ 4 μg/ml+ ATB",64 µg/mL
same,MIC,"strain KPN UFR25 (TEM-1, SHV-11, CTX-M-15, OXA-162), ATB alone",> 128 µg/mL
same,MIC,"strain KPN UFR25 (TEM-1, SHV-11, CTX-M-15, OXA-162), CLA @ 4 μg/ml+ ATB",64 µg/mL
same,MIC,"strain KPN UFR27 (TEM-1, SHV-28, CTX-M-15, OXA-204), ATB alone",> 128 µg/mL
same,MIC,"strain KPN UFR27 (TEM-1, SHV-28, CTX-M-15, OXA-204), CLA @ 4 μg/ml+ ATB",> 128 µg/mL
same,MIC,"strain KPN UFR28 (TEM-1, SHV-1, CTX-M-15, OXA-1, OXA-232), ATB alone",256 µg/mL
